# Assay results as given in PMC10665234, “Nutritional Supplementation and Enhanced Antioxidant Function by Dietary Intake of Selenoneine and Other Selenium Compounds in Red Seabream Pagrus major” (Marine Biotechnology (New York, N.y.), 2023).
# Experiments:
# [1] = Selenoneine concentration in white muscle and blood cell by HPLC-ICP-MS (82Se); assay type: in vivo, red seabream Pagrus major; conditions: for Selenoneine concentration, blood cell / Selenoneine concentration, white muscle: fish cultured for 4 weeks
# Procedure: (§1) Red seabream fry (average body weight of 5.4 g) was obtained from private seed and seedling production company (Oita, Japan) and cultured for seven months up to average body weight of 250 g. Chemical composition of control diet was containing crude protein 50%; […]; Ca 2.3%; ash 16.0%; and phosphorus 1.5%. Each selenium-added diet was fed twice a day for 4 weeks in an amount of 1% of the average body weight. Body weight of fish in each tank was measured when fish were sampled and amount of diet was calculated according to the body weight of every sampling day. The added selenium concentrations in the diets were set in 0 ppm, 1 ppm, and 2 ppm selenium according to the previous study (Tohfuku et al. [2021]). After that, they were fed a commercial diet twice a day for 1 week. The test groups were the control group, the sodium selenite group (1 mg Se/kg feeding group and 2 mg Se/kg feeding group), the selenomethionine group (1 mg Se/kg feeding group and 2 mg Se/kg feeding group), and the selenoneine group (1 mg Se/kg feeding group and 2 mg Se/kg feeding group) were set. The number of fish raised was 15 from the start of rearing in each tank until the 2nd week, 10 from the 3rd to 4th week, and 5 in the 5th week. […] We reared red seabream by feeding of 1% dry pellet containing of sodium selenite, selenomethionine, or selenoneine of body weight twice a day for 4 weeks. After that, we replaced to 1% of commercial dry pellet of body weight twice a day for 1 week from the selenium supplementation. Average water temperature was 20.9 ℃ (19.0–23.9 ℃) and average dissolved oxygen was 7.41 mg/L. The body weight change of red seabream for 5 weeks is shown in Table S2.
# (§2) Red seabream was anesthetized by adding 2 mL of anesthetic (1/100 volume of 2-methylquinoline dissolved in ethanol) to 1 L of seawater. A small amount of an anticoagulant (heparin sodium dissolved in physiological saline; 800 units/mL) was placed in a syringe in advance, and blood was collected from the caudal peduncle of each fish. The collected blood was centrifuged at 5000 rpm for 5 min (4 °C), divided into a plasma fraction and a precipitated fraction, and stored at − 50 °C. The precipitated fraction was used for analysis as the blood cell fraction.
# Selenoneine was separated by chromatography using a Shodex GF-310 column (4.5 mm × 150 mm; Showa Denko, Tokyo, Japan) equilibrated with 100 mM ammonium formate buffer containing 0.1% (w/v) Igepal CA-630 (MP Biomedicals, CA, USA). The injection volume was at 10 μL. The mobile phase delivered at 0.5 mL/min isocratically. ^82Se was detected with high performance liquid chromatography inductively coupled plasma mass spectrometry (HPLC-ICP-MS; Agilent 1100 Series and Agilent 7500 Series, Agilent Technology) (Yamashita and Yamashita [2010]). During separation, selenoneine was eluted at a retention time of 200 s, and the selenium concentration was determined using selenoneine as a standard.
# [2] = tested on: yellowtail; set-up: method as in Our unpublished research; conditions: ref Our unpublished research; cited from earlier work
# [3] = tested on: red seabream; assay: Oxidation-reduction potential (ORP) in white muscle; assay type: in vivo, red seabream Pagrus major; conditions: 2 weeks; 1 or 2 ppm in diet
# Procedure: ORP was measured with ORP electrode (9300, Horiba, Kyoto, […]). The electrode was pierced into muscle and pressed gently until the potential stabilized for 60 s.
# [4] = Total selenium concentrations in the tissues of red seabream after feeding selenium-supplemented dry pellet (fluorometric assay with 2,3-diamino-naphthalene); assay type: in vivo, red seabream Pagrus major
# Procedure: as §1, §2
# Total selenium concentration was determined by fluorometric assay with 2,3-diamino-naphthalene, after digestion in 1.5 mL of nitric acid and perchloric acid (1:2 in volume) at 200–220 ℃ (Watkinson [1966]; Yamashita and Yamashita [2010]).
# [5] = Uptake factor of selenoneine from feed (ratio of concentration in muscle or blood cells to feed); assay type: in vivo, red seabream Pagrus major; conditions: artificial feed containing selenoneine at 0.1–2 mg Se/kg
# Procedure: Uptake factor is defined as a ratio of selenoneine concentration in muscle or blood cells to those in feed, and is the same as the biomagnification factor (Yamada et al. [1994]). Thus, uptake factor is an indicator showing the degree of accumulation of selenoneine in muscle or blood cells by dietary intake of feed. The uptake factor was calculated by the following equation on the equilibrium period of the dietary exposure experiments:
# Uptake factor = ((Cen − Cb) / CF) × 10^–3where Cen is selenoneine concentration in muscle or blood cells of fish fed with selenoneine-contained feed (ng/kg), Cb is selenoneine concentration in muscle or blood cells of the control fish (ng/kg wet), and CF is the selenoneine concentration in the contained feed (μg/kg).
# [6] = 5 weeks (4 weeks supplementation, then 1 week commercial diet), diet 1 mg Se/kg added
# [7] = 5 weeks (4 weeks supplementation, then 1 week commercial diet), diet 2 mg Se/kg added
compound,measurement,setting,value
"C[N+](C)(C)[C@@H](Cc1cnc([Se-])[nH]1)C(=O)O [Selenoneine, 2-selenyl-Nα, Nα, Nα-trimethyl-L-histidine]",Selenoneine as share of total selenium in blood cell,"[1]; blood cell, 4 weeks",more than 63%
same,"Selenoneine concentration, blood cell","[1]; blood cell, diet 1 mg Se/kg added",4.72 ± 1.06 mg Se/kg
same,"Selenoneine concentration, blood cell","[1]; blood cell, diet 1 mg Se/kg added, listed as selenoneine",4.72 ± 1.06 mg Se/kg
same,"Selenoneine concentration, blood cell","[1]; blood cell, diet 2 mg Se/kg added",10.29 ± 3.14 mg Se/kg
same,"Selenoneine concentration, blood cell","[1]; blood cell, diet 2 mg Se/kg added, listed as selenoneine",10.29 ± 3.14 mg Se/kg
same,Selenoneine as share of selenium in white muscle,"[1]; white muscle, 4 weeks",4.6–7.0%
same,"Selenoneine concentration, white muscle","[1]; white muscle, diet 1 mg Se/kg added",0.025 ± 0.003 mg Se/kg
same,"Selenoneine concentration, white muscle","[1]; white muscle, diet 1 mg Se/kg added, listed as selenoneine",0.025 ± 0.003 mg Se/kg
same,"Selenoneine concentration, white muscle","[1]; white muscle, diet 2 mg Se/kg added",0.030 ± 0.007 mg Se/kg
same,"Selenoneine concentration, white muscle","[1]; white muscle, diet 2 mg Se/kg added, listed as selenoneine",0.030 ± 0.007 mg Se/kg
same,Selenoneine concentration in white muscle,"[1]; white muscle, selenoneine 1 mg Se/kg administration group",25.4 ± 3.2 µg Se/kg
same,Selenoneine concentration in white muscle,"[1]; white muscle, selenoneine 2 mg Se/kg administration group",30.0 ± 6.6 µg Se/kg
same,Ratio of selenium used in selenoneine in white muscle,"[1]; white muscle, selenoneine 2 ppm administration group",about 7.0%
same,ORP after dietary intake,[2],reduced ORP and approached the ORP of wild fish
same,ORP in white muscle compared to control,[3],reduced ORP
same,"Total selenium content, blood cell","[4]; 2 weeks, diet 1 mg Se/kg added",3.98 ± 1.00 mg Se/kg
same,"Total selenium content, blood cell","[4]; 2 weeks, diet 2 mg Se/kg added",9.28 ± 1.67 mg Se/kg
same,"Total selenium content, blood cell","[4]; 4 weeks, diet 1 mg Se/kg added",5.93 ± 1.00 mg Se/kg
same,"Total selenium content, blood cell","[4]; 4 weeks, diet 2 mg Se/kg added",9.94 ± 2.05 mg Se/kg
same,"Total selenium content, blood cell",[4]; [6],4.70 ± 0.53 mg Se/kg
same,"Total selenium content, blood cell",[4]; [7],9.10 ± 1.48 mg Se/kg
same,"Total selenium content, brain","[4]; 2 weeks, diet 1 mg Se/kg added",0.48 ± 0.02 mg Se/kg
same,"Total selenium content, brain","[4]; 2 weeks, diet 2 mg Se/kg added",0.50 ± 0.04 mg Se/kg
same,"Total selenium content, brain","[4]; 4 weeks, diet 1 mg Se/kg added",0.55 ± 0.06 mg Se/kg
same,"Total selenium content, brain","[4]; 4 weeks, diet 2 mg Se/kg added",0.56 ± 0.05 mg Se/kg
same,"Total selenium content, brain",[4]; [6],0.48 ± 0.09 mg Se/kg
same,"Total selenium content, brain",[4]; [7],0.47 ± 0.04 mg Se/kg
same,Tissues in which total selenium was accumulated compared with the control group,[4]; diet 1 mg Se/kg,"white muscle, kidney, spleen, hepatopancreas, brain, and blood cell"
same,Tissues in which total selenium was accumulated compared with the control group,[4]; diet 2 mg Se/kg,"white muscle, heart, kidney, spleen, hepatopancreas, brain, and blood cell"
same,"Total selenium content, heart","[4]; 2 weeks, diet 1 mg Se/kg added",1.11 ± 0.11 mg Se/kg
same,"Total selenium content, heart","[4]; 2 weeks, diet 2 mg Se/kg added",1.32 ± 0.18 mg Se/kg
same,"Total selenium content, heart","[4]; 4 weeks, diet 1 mg Se/kg added",1.16 ± 0.11 mg Se/kg
same,"Total selenium content, heart","[4]; 4 weeks, diet 2 mg Se/kg added",1.19 ± 0.09 mg Se/kg
same,"Total selenium content, heart",[4]; [6],1.09 ± 0.15 mg Se/kg
same,"Total selenium content, heart",[4]; [7],1.28 ± 0.29 mg Se/kg
same,"Total selenium content, hepatopancreas","[4]; 2 weeks, diet 1 mg Se/kg added",1.27 ± 0.18 mg Se/kg
same,"Total selenium content, hepatopancreas","[4]; 2 weeks, diet 2 mg Se/kg added",1.51 ± 0.26 mg Se/kg
same,"Total selenium content, hepatopancreas","[4]; 4 weeks, diet 1 mg Se/kg added",1.22 ± 0.14 mg Se/kg
same,"Total selenium content, hepatopancreas","[4]; 4 weeks, diet 2 mg Se/kg added",1.35 ± 0.18 mg Se/kg
same,"Total selenium content, hepatopancreas",[4]; [6],1.34 ± 0.26 mg Se/kg
same,"Total selenium content, hepatopancreas",[4]; [7],1.40 ± 0.25 mg Se/kg
same,"Total selenium content, kidney","[4]; 2 weeks, diet 1 mg Se/kg added",3.22 ± 0.18 mg Se/kg
same,"Total selenium content, kidney","[4]; 2 weeks, diet 2 mg Se/kg added",3.46 ± 0.43 mg Se/kg
same,"Total selenium content, kidney","[4]; 4 weeks, diet 1 mg Se/kg added",3.17 ± 0.40 mg Se/kg
same,"Total selenium content, kidney","[4]; 4 weeks, diet 2 mg Se/kg added",4.03 ± 0.72 mg Se/kg
same,"Total selenium content, kidney",[4]; [6],2.96 ± 0.32 mg Se/kg
same,"Total selenium content, kidney",[4]; [7],3.51 ± 0.49 mg Se/kg
same,"Total selenium content, spleen","[4]; 2 weeks, diet 1 mg Se/kg added",3.45 ± 0.56 mg Se/kg
same,"Total selenium content, spleen","[4]; 2 weeks, diet 2 mg Se/kg added",4.69 ± 0.79 mg Se/kg
same,"Total selenium content, spleen","[4]; 4 weeks, diet 1 mg Se/kg added",3.23 ± 0.37 mg Se/kg
same,"Total selenium content, spleen","[4]; 4 weeks, diet 2 mg Se/kg added",5.20 ± 1.01 mg Se/kg
same,"Total selenium content, spleen",[4]; [6],3.15 ± 0.83 mg Se/kg
same,"Total selenium content, spleen",[4]; [7],3.16 ± 0.68 mg Se/kg
same,"Total selenium content, white muscle","[4]; 2 weeks, diet 1 mg Se/kg added",0.39 ± 0.05 mg Se/kg
same,"Total selenium content, white muscle","[4]; 2 weeks, diet 2 mg Se/kg added",0.35 ± 0.04 mg Se/kg
same,"Total selenium content, white muscle","[4]; 4 weeks, diet 1 mg Se/kg added",0.40 ± 0.05 mg Se/kg
same,"Total selenium content, white muscle","[4]; 4 weeks, diet 2 mg Se/kg added",0.43 ± 0.04 mg Se/kg
same,"Total selenium content, white muscle",[4]; [6],0.38 ± 0.04 mg Se/kg
same,"Total selenium content, white muscle",[4]; [7],0.38 ± 0.03 mg Se/kg
same,Uptake factor of selenoneine in the blood,[5]; blood (blood cells),4.0
same,Uptake factor of selenoneine in the white muscle,[5]; white muscle,0.0062
